Structures can show the parent of a compound that is named as a salt. A value given as a limit tells only on which side of the number the result lay.

These results are taken from patent publication US8299296B2, “Spiro compounds and pharmaceutical use thereof” (Japan Tobacco Inc., priority 2007, dated 2012).

In this assay the target is T1, human GPR40 (Homo sapiens, UniProt O14842).
T1 construct: expressed in transfected cells
T1 sequence (O14842 whole entry): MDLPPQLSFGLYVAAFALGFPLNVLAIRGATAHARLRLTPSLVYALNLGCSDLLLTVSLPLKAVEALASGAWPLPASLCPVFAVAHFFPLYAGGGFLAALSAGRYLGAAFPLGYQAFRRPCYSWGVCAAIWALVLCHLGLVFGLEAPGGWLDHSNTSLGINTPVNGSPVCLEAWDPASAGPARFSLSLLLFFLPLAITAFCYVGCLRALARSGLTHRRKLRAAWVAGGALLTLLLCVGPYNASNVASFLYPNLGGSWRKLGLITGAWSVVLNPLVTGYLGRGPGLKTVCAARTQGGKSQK
Briefly: Ca2+ mobilization (FLIPR) in a stable GPR40-expressing cell; GPR40 agonist activity. The class given is cell-based. Particulars: compound concentration corresponding to 50% PosiC, 100% = intracellular calcium level induced by 80 μM palmitic acid. The protocol: Evaluation of effect of test compounds on Ca^2+ mobilization by using a stable GPR40-expressing cell A stable human GPR40-expressing HEK293 cell was used. A cell suspension was prepared such that the above-mentioned cells were present at 6×10^5 cells/mL in a cell culture medium (D-MEM (Nikken Bio Medical Laboratory) supplemented with 10% (v/v) fetal bovine serum (Biowest) and 1% (v/v) penicillin-streptomycin solution (Invitrogen)). The cell suspension was plated in a 384-well plate (poly-D-lysine coated plate; Falcon) in a volume of 25 μl/well, and the plate was incubated at 37° C. in an atmosphere of 5% CO2 overnight. Each test compound was added to the cell at each concentration as below, and then the change in intracellular calcium level was measured by FLIPR^TETRA (Molecular Devices). Before the FLIPR assay, the following preparative solutions were prepared. First, an assay buffer was prepared for use in the preparation of a fluorescent dye solution and a diluent buffer solution. The assay buffer was prepared by adding 1M HEPES solution (Invitrogen) to Hanks' Balanced Salt Solution (Invitrogen), followed by adjusting the pH to 7.4 with 1M NaOH (Nacalai Tesque). Next, the fluorescent dye solution and the diluent buffer solution were prepared. The fluorescent dye solution was prepared in accordance with the instruction manual attached to Fluo-4NW calcium assay kit (Invitrogen), followed by addition of bovine serum albumin (Sigma) to a final concentration of 0.1% (w/v). The diluent buffer solution was prepared by adding bovine serum albumin (Sigma) to the assay buffer to give a final concentration of 0.1% (w/v). After removing a medium supernatant from the cell culture plate incubated overnight, the fluorescent dye solution was added to the plate in a volume of 25 μl/well. The plate was incubated at 37° C. in an atmosphere of 5% CO2 for 90 minutes to promote the fluorescent dye uptake in the cell. Meanwhile, the test compounds (i.e., the compounds prepared in Examples) dissolved in dimethyl sulfoxide (DMSO; Nacalai Tesque) were diluted with the diluent buffer solution, to prepare each compound solution at each concentration. In addition, a palmitic acid solution was prepared as a positive control solution (hereinafter abbreviated as PosiC). A 40 μl aliquot of each sample solution prepared as above was added to each well of a 384-well polypropylene plate to prepare a compound plate. Finally, after the sufficient uptake of the fluorescent dye in the cell, the cell plate and the compound plate were set to FLIPR^TETRA. After the above pretreatment, the change in intracellular calcium level was measured by FLIPR^TETRA upon addition of 25 μl of each test compound solution at each concentration. The GPR40 agonist activity of each test compound at each concentration was determined as a relative activity level (% PosiC) with the intracellular calcium level induced by 80 μM palmitic acid (a GPR40 agonist) set to 100%. Next, each compound concentration corresponding to 50% PosiC was calculated based on the % PosiC value, to compare between agonist activities of the test compounds. In the tables, “++++” indicates 0.01 μM or more but less than 0.1 μM, “+++” indicates 0.1 μM or more but less than 1 μM, “++” indicates 1 μM or more but less than 10 μM, and “+” indicates 10 μM or more for 50% posiC value. In the tables, “N.T.” indicates “not tested”.
In general terms: Calcium flux is commonly read through the fluorescence of an indicator in the cells.
For orientation: EC50 means the midpoint of the concentration-response curve. Regarding `CCC[C@@H](CC(=O)O)c1ccc(OCC2CCCC3(CCCCC3)C2)cc1` (mixture of isomers) [Example 78, (3S)-3-[4-(spiro[5.5]undec-2-ylmethoxy)-phenyl]-hexanoic acid], the concentration for a half-maximal effect (EC50) fell in the range of 1000 to 10000 nM. The same measure for `COC(CC(=O)O)c1ccc(OCC2CCCC3(CCCCC3)C2)cc1` (racemic) [Example 80, 3-methoxy-3-[4-(spiro[5.5]undec-2-ylmethoxy)-phenyl]-propionic acid]: 1000 to 10000 nM; for `CC(C)OC(CC(=O)O)c1ccc(OCC2CCCC3(CCCCC3)C2)cc1` (racemic) [Example 81, 3-isopropoxy-3-[4-(spiro[5.5]undec-2-ylmethoxy)-phenyl]-propionic acid]: 100 to 1000 nM; for `CC#CC(CC(=O)O)c1ccc(COC2CCCC3(CCCCC3)C2)cc1` (racemic) [Example 82, 3-[4-(spiro[5.5]undec-2-yloxymethyl)-phenyl]-hex-4-ynoic acid]: 1000 to 10000 nM.

On to `CCCOC(CC(=O)O)c1ccc(OCC2CCCC3(CCCCC3)C2)cc1` (racemic) [Example 83, 3-propoxy-3-[4-(spiro[5.5]undec-2-ylmethoxy)-phenyl]-propionic acid], for which the concentration for a half-maximal effect (EC50) fell in the range of 100 to 1000 nM. `CCC#CC(CC(=O)O)c1ccc(OCC2CCCC3(CCCCC3)C2)cc1` (racemic) [Example 84, 3-[4-(spiro[5.5]undec-2-ylmethoxy)-phenyl]-hept-4-ynoic acid]: the EC50 fell in the range of 1000 to 10000 nM. For `C#CC(CC(=O)O)c1ccc(OCC2CCCC3(CCCCC3)C2)cc1` (racemic) [Example 85, 3-[4-(spiro[5.5]undec-2-ylmethoxy)-phenyl]-pent-4-ynoic acid], the EC50 lay within 1000 to 10000 nM. Then `C=CC(CC(=O)O)c1ccc(OCC2CCCC3(CCCCC3)C2)cc1` (racemic) [Example 86, 3-[4-(spiro[5.5]undec-2-ylmethoxy)-phenyl]-pent-4-enoic acid], with 1000 to 10000 nM. Then `CCC(CC(=O)O)c1ccc(OCC2CCCC3(CCCCC3)C2)cc1` (racemic) [Example 87, 3-[4-(spiro[5.5]undec-2-ylmethoxy)-phenyl]-pentanoic acid], with 1000 to 10000 nM; and `O=C(O)CCc1ccc(OCC2CCCC3(CCCC3)C2)nc1` (racemic) [Example 113, 3-[6-(spiro[4.5]dec-7-ylmethoxy)-pyridin-3-yl]-propionic acid hydrochloride], with 1000 to 10000 nM; and `COC1CCC2(CCC(COc3ccc(CCC(=O)O)cc3)CC2)CC1` (racemic) [Example 114, 3-[4-(9-methoxy-spiro[5.5]undec-3-ylmethoxy)-phenyl]-propionic acid], with ≥ 10000 nM. Then `CC1(C)CC(COc2ccc(CCC(=O)O)cc2)CC2(CCCC2)C1` (racemic) [Example 115, 3-[4-(9,9-dimethyl-spiro[4.5]dec-7-ylmethoxy)-phenyl]-propionic acid], with 1000 to 10000 nM; and `CC#C[C@@H](CC(=O)O)c1ccc(OCC2CCCCC3(CC3)C2)cc1` (mixture of isomers) [Example 116, (3S)-3-[4-(spiro[2.6]non-5-ylmethoxy)-phenyl]-hex-4-ynoic acid], with 1000 to 10000 nM. For the compound `CC#C[C@@H](CC(=O)O)c1ccc(OCC2CCC3(CCC3)C2)cc1` (mixture of isomers) [Example 118, (3S)-3-[4-(spiro[3.4]oct-6-ylmethoxy)-phenyl]-hex-4-ynoic acid], the EC50 lay within 100 to 1000 nM. Regarding `CC#C[C@@H](CC(=O)O)c1ccc(OCC2CCCC3(CCCCC3)C2)cc1` (single isomer, unassigned) [Example 32], the 50% effective concentration (EC50) was in the range of 100 to 1000 nM. The same measure for `CC#C[C@@H](CC(=O)O)c1ccc(OCC2CCCC3(CCCC3)C2)cc1` (single isomer, unassigned) [Example 37]: 100 to 1000 nM; for `CC#C[C@@H](CC(=O)O)c1ccc(OCC2CCCC3(CCCC3)C2)cc1` (single isomer, unassigned) [Example 39]: 100 to 1000 nM. Then `O=C(O)CCc1ccc(OCC2CCCC3(CCCCC3)C2)cc1` (single isomer, unassigned) [Example 88, 3-[4-(spiro[5.5]undec-2-ylmethoxy)-phenyl]-propionic acid (chiral: A)], with 1000 to 10000 nM; and `O=C(O)CCc1ccc(OCC2CCCC3(CCCCC3)C2)cc1` (single isomer, unassigned) [Example 89, 3-[4-(spiro[5.5]undec-2-ylmethoxy)-phenyl]-propionic acid (chiral: B)], with 1000 to 10000 nM. The same measure for `CCOC(CC(=O)O)c1ccc(OCC2=CC3(CCCCC3)CCC2)cc1` (single isomer, unassigned; (+)) [Example 44, (+)-3-ethoxy-3-[4-(spiro[5.5]undec-1-en-2-ylmethoxy)-phenyl]-propionic acid]: 1000 to 10000 nM. Regarding `CCOC(CC(=O)O)c1ccc(OCC2=CC3(CCCCC3)CCC2)cc1` (single isomer, unassigned; (-)) [Example 42, (−)-3-ethoxy-3-[4-(spiro[5.5]undec-1-en-2-ylmethoxy)-phenyl]-propionic acid], the EC50 is 10 to 100 nM. `CCOC(CC(=O)O)c1ccc(OCC2=CC3(CCCCC3)CCC2)cc1` (single isomer, unassigned; (-)) [Example 120, (−)-3-ethoxy-3-[4-(spiro[5.5]undec-1-en-2-ylmethoxy)-phenyl]-propionic acid L-lysine salt]: the EC50 lay in the range of 100 to 1000 nM. As for `CC#C[C@@H](CC(=O)O)c1ccc(OCC2=CCCC3(CCCCC3)C2)cc1` [Example 1, (S)-3-[4-(spiro[5.5]undec-2-en-2-ylmethoxy)-phenyl]-hex-4-ynoic acid], the EC50 lay in the range of 10 to 100 nM. Turning to `CC#C[C@@H](CC(=O)O)c1ccc(OCC2=CCCC3(CCCCC3)C2)cc1` [Example 2, (S)-3-[4-(spiro[5.5]undec-2-en-2-ylmethoxy)-phenyl]-hex-4-ynoic acid sodium salt], the EC50 lay in the range of 10 to 100 nM. Consider `CC#C[C@@H](CC(=O)O)c1ccc(OCC2=CCCC3(CCCCCC3)C2)cc1` [Example 4, (S)-3-[4-(spiro[5.6]dodec-2-en-2-ylmethoxy)-phenyl]-hex-4-ynoic acid sodium salt], for which the EC50 is 10 to 100 nM. As for `CC#C[C@@H](CC(=O)O)c1ccc(OCC2=CCCC3(CCCC3)C2)cc1` [Example 6, (S)-3-[4-(spiro[4.5]dec-7-en-7-ylmethoxy)-phenyl]-hex-4-ynoic acid sodium salt], the concentration for a half-maximal effect (EC50) was 100 to 1000 nM. The same measure for `CC#C[C@@H](CC(=O)O)c1ccc(OCC2=CC3(CCCC3)CCC2)cc1` [Example 8, (S)-3-[4-(spiro[4.5]dec-6-en-7-ylmethoxy)-phenyl]-hex-4-ynoic acid sodium salt]: 100 to 1000 nM; for `CC#C[C@@H](CC(=O)O)c1ccc(OCC2=CC3(CCCCC3)CCC2)cc1` [Example 9, (S)-3-[4-(spiro[5.5]undec-1-en-2-ylmethoxy)-phenyl]-hex-4-ynoic acid]: 100 to 1000 nM.

For the compound `CC#C[C@@H](CC(=O)O)c1ccc(OCC2=CCC3(CCCC3)C2)cc1` [Example 11, (S)-3-[4-(spiro[4.4]non-2-en-2-ylmethoxy)-phenyl]-hex-4-ynoic acid], the EC50 lay in the range of 100 to 1000 nM.

Turning to `CC#C[C@@H](CC(=O)O)c1ccc(OCC2=CCC3(CCCCC3)C2)cc1` [Example 14, (S)-3-[4-(spiro[4.5]dec-2-en-2-ylmethoxy)-phenyl]-hex-4-ynoic acid sodium salt], the EC50 was in the range of 100 to 1000 nM. The same measure for `CC#C[C@@H](CC(=O)O)c1ccc(OCC2=CC3(CCCCC3)CC2)cc1` [Example 16, (S)-3-[4-(spiro[4.5]dec-1-en-2-ylmethoxy)-phenyl]-hex-4-ynoic acid sodium salt]: 100 to 1000 nM; for `CC#C[C@@H](CC(=O)O)c1ccc(OCC2=CC3(CCCC3)CC2)cc1` [Example 17, (S)-3-[4-(spiro[4.4]non-1-en-2-ylmethoxy)-phenyl]-hex-4-ynoic acid]: 100 to 1000 nM; for `CC#C[C@@H](CC(=O)O)c1ccc(OCC2CCC3(CCCC3)CC2)cc1` [Example 22, (S)-3-[4-(spiro[4.5]dec-8-ylmethoxy)-phenyl]-hex-4-ynoic acid]: 100 to 1000 nM.
